Experimental data reported in publication PMC6134108, “Nystatin-like Pseudonocardia polyene B1, a novel disaccharide-containing antifungal heptaene antibiotic” (Scientific Reports, 2018).
Where two headings read alike, the source gives them in different places.

What was measured:
in vivo [1] = settings: male, SD, rat, iv, 0.5 mg/kg
[2] = Single intravenous dose acute toxicity; assay type: in vivo, mice; settings: ICR, mouse, in vivo, single intravenous administration
Protocol: (§1) All in vivo mouse toxicity studies were conducted according to Testing Guidelines for Safety Evaluation of Drugs[32] and the Organisation for Economic Co-operation and Development (OECD) Guideline[33]. Male and female ICR mice were used 7 weeks old for the toxicity test. […] The single doses were 1, 2.5, and 5 mg per kg body weight.

ICR mice [3] = experiment: Single intravenous dose acute toxicity; assay type: in vivo
Protocol: as §1

horse blood cells = assay type: cell-based; settings: 90% hemolysis against horse blood cells; ± percentage standard deviation
Protocol: (§2) For the minimum inhibitory concentration (MIC) assay, strains for testing were grown on YPD agar for 24 hours, and subcultured to YPD broth medium. Whole strains were incubated for 18 hours at 35 °C by shaking incubator. Grown organisms were diluted with fresh RPMI 1640 medium to appropriate concentration, 5 × 10^4 CFU/ml. Cultures were inoculated to 96-well plates containing antifungal medium. All compounds were dissolved using Dimethyl Sulfoxide (DMSO) and diluted broth media. Fungal diluted solution and antifungal medium were mixed at 1:1 ratio so total 200 ul mixed medium was made. Whole experiment plates were incubated for 24 hours at 37 °C. […] The MICs were calculated in duplicate using the Clinical and Laboratory Standards Institute M27-A3 microbroth methodology. Hemolysis experiments and the 3-(4,5-dimethylthiazol-2-yl)-5-(3-carboxymethoxyphenyl)-2-(4-sulfophenyl)-2H-tetrazolium (MTS) cell proliferation colorimetric assay were performed following known procedures[12],[27],[29].

[4] = 7-day repeated intravenous dose toxicity; assay type: in vivo, mice; settings: both sexes, ICR, mouse, in vivo; mice, 7-day repeated intravenous doses; read-out: MTD, maximal tolerated dose
Protocol: (§3) All in vivo mouse toxicity studies were conducted according to Testing Guidelines for Safety Evaluation of Drugs[32] and the Organisation for Economic Co-operation and Development (OECD) Guideline[33]. Male and female ICR mice were used 7 weeks old for the toxicity test. […]

ICR mice [5] = experiment: 7-day repeated intravenous dose toxicity; assay type: in vivo
Protocol: as §3

C. albicans SC5314 = experiment: MIC assay (CLSI M27-A3 microbroth); assay type: cell-based; settings: Candida albicans; C. albicans SC5314; no visible growth; read-out: Antifungal activity (MIC)
Protocol: as §2

C. albicans SL28 = experiment: MIC assay (CLSI M27-A3 microbroth); assay type: cell-based; settings: Candida albicans; C. albicans SL28; no visible growth; read-out: Antifungal activity (MIC)
Protocol: as §2

[6] = test system: Saccharomyces cerevisiae ATCC9035; experiment: MIC assay (CLSI M27-A3 microbroth); assay type: cell-based; settings: Saccharomyces cerevisiae ATCC9035; read-out: Antifungal activity (MIC)
Protocol: as §2

[7] = test system: Cryptococcus humicola ATCC9949; experiment: MIC assay (CLSI M27-A3 microbroth); assay type: cell-based; settings: Vanrija humicola; Cryptococcus humicola ATCC9949; read-out: Antifungal activity (MIC)
Protocol: as §2

[8] = test system: Candida albicans KCTC7965; experiment: MIC assay (CLSI M27-A3 microbroth); assay type: cell-based; settings: Candida albicans KCTC7965; no visible growth; read-out: Antifungal activity (MIC)
Protocol: as §2

C. albicans SL38 = experiment: MIC assay (CLSI M27-A3 microbroth); assay type: cell-based; settings: Candida albicans; C. albicans SL38; no visible growth; read-out: Antifungal activity (MIC)
Protocol: as §2

in vivo [9] = settings: mouse, 1 mg/kg
Source text: Supplement 41598_2018_31801_MOESM1_ESM.docx, table 4: Table S4.

C[C@@H]1[C@H](O)[C@@H](C)/C=C/C=C/C=C/C=C/C=C/C=C/C=C/[C@H](O[C@@H]2O[C@H](C)[C@@H](O)[C@H](N)[C@@H]2O)C[C@@H]2O[C@](O)(C[C@@H](O)C[C@@H](O)[C@H](O)CC[C@@H](O)C[C@@H](O)CC(=O)O[C@H]1C)C[C@H](O)[C@H]2C(=O)O [Amphotericin B, amphotericin B]
4: Deaths on day after start of treatment (ICR mice [3]; female, single iv 5mg/kg, day 0)
8.3 h: half-life (in vivo [1]; in vivo)
0.2 L/kg: Vd (in vivo [9])
3.5 L/kg: Vd (in vivo [1]; plasma)
3: Deaths on day after start of treatment (ICR mice [3]; female, single iv 2.5mg/kg, day 2)
1 µg/mL: MIC (C. albicans SC5314) | MIC (C. albicans SL28) | MIC [6] | MIC [8] | MIC (C. albicans SL38)
11.6 h: MRT inf (in vivo [1]; plasma)
2.3 mg/kg: LD50 at 7 days ([2]; both sexes, mice, read-out: LD50, median lethal dose (dose causing 50% mortality))
1680 ng·h/mL: AUC(0-inf) (in vivo [1]; plasma)
2: Deaths on day after start of treatment (ICR mice [3]; male, single iv 2.5mg/kg, day 2)
29300 ng·h/mL: AUC(0-inf) (in vivo [9])
1.6 mg/kg: LD50 at 7 days ([2]; female mice, read-out: median lethal dose (LD50))
3.4 h: half-life (in vivo [9])
1: Deaths on day after start of treatment (ICR mice [3]; female, single iv 1mg/kg, day 2) | Deaths on day after start of treatment (ICR mice [3]; female, single iv 2.5mg/kg, day 1) | Deaths on day after start of treatment (ICR mice [3]; female, single iv 2.5mg/kg, day 6) | Deaths on day after start of treatment (ICR mice [3]; female, single iv 5mg/kg, day 2) | Deaths on day after start of treatment (ICR mice [5]; male, repeated iv 1.5mg/kg, day 6)
22200 ng·h/mL: AUC(0-t) (in vivo [9])
0.5 µg/mL: MIC [7]
0: Deaths on day after start of treatment (ICR mice [3]; female, single iv 1mg/kg, day 0) | Deaths on day after start of treatment (ICR mice [3]; female, single iv 1mg/kg, day 1) | Deaths on day after start of treatment (ICR mice [3]; female, single iv 1mg/kg, day 3) | Deaths on day after start of treatment (ICR mice [3]; female, single iv 1mg/kg, day 4) | Deaths on day after start of treatment (ICR mice [3]; female, single iv 1mg/kg, day 5) | Deaths on day after start of treatment (ICR mice [3]; female, single iv 1mg/kg, day 6) | Deaths on day after start of treatment (ICR mice [3]; female, single iv 1mg/kg, day 7) | Deaths on day after start of treatment (ICR mice [3]; female, single iv 2.5mg/kg, day 0) | Deaths on day after start of treatment (ICR mice [3]; female, single iv 2.5mg/kg, day 3) | Deaths on day after start of treatment (ICR mice [3]; female, single iv 2.5mg/kg, day 4) | Deaths on day after start of treatment (ICR mice [3]; female, single iv 2.5mg/kg, day 5) | Deaths on day after start of treatment (ICR mice [3]; female, single iv 2.5mg/kg, day 7) | Deaths on day after start of treatment (ICR mice [3]; female, single iv 5mg/kg, day 1) | Deaths on day after start of treatment (ICR mice [3]; female, single iv 5mg/kg, day 3) | Deaths on day after start of treatment (ICR mice [3]; female, single iv 5mg/kg, day 4) | Deaths on day after start of treatment (ICR mice [3]; female, single iv 5mg/kg, day 5) | Deaths on day after start of treatment (ICR mice [3]; female, single iv 5mg/kg, day 6) | Deaths on day after start of treatment (ICR mice [3]; female, single iv 5mg/kg, day 7) | Deaths on day after start of treatment (ICR mice [3]; male, single iv 1mg/kg, day 0) | Deaths on day after start of treatment (ICR mice [3]; male, single iv 1mg/kg, day 1) | Deaths on day after start of treatment (ICR mice [3]; male, single iv 1mg/kg, day 2) | Deaths on day after start of treatment (ICR mice [3]; male, single iv 1mg/kg, day 3) | Deaths on day after start of treatment (ICR mice [3]; male, single iv 1mg/kg, day 4) | Deaths on day after start of treatment (ICR mice [3]; male, single iv 1mg/kg, day 5) | Deaths on day after start of treatment (ICR mice [3]; male, single iv 1mg/kg, day 6) | Deaths on day after start of treatment (ICR mice [3]; male, single iv 1mg/kg, day 7) | Deaths on day after start of treatment (ICR mice [3]; male, single iv 2.5mg/kg, day 0) | Deaths on day after start of treatment (ICR mice [3]; male, single iv 2.5mg/kg, day 1) | Deaths on day after start of treatment (ICR mice [3]; male, single iv 2.5mg/kg, day 3) | Deaths on day after start of treatment (ICR mice [3]; male, single iv 2.5mg/kg, day 4) | Deaths on day after start of treatment (ICR mice [3]; male, single iv 2.5mg/kg, day 5) | Deaths on day after start of treatment (ICR mice [3]; male, single iv 2.5mg/kg, day 6) | Deaths on day after start of treatment (ICR mice [3]; male, single iv 2.5mg/kg, day 7) | Deaths on day after start of treatment (ICR mice [3]; male, single iv 5mg/kg, day 1) | Deaths on day after start of treatment (ICR mice [3]; male, single iv 5mg/kg, day 2) | Deaths on day after start of treatment (ICR mice [3]; male, single iv 5mg/kg, day 3) | Deaths on day after start of treatment (ICR mice [3]; male, single iv 5mg/kg, day 4) | Deaths on day after start of treatment (ICR mice [3]; male, single iv 5mg/kg, day 5) | Deaths on day after start of treatment (ICR mice [3]; male, single iv 5mg/kg, day 6) | Deaths on day after start of treatment (ICR mice [3]; male, single iv 5mg/kg, day 7) | Deaths on day after start of treatment (ICR mice [5]; female, repeated iv 0.5mg/kg, day 0) | Deaths on day after start of treatment (ICR mice [5]; female, repeated iv 0.5mg/kg, day 1) | Deaths on day after start of treatment (ICR mice [5]; female, repeated iv 0.5mg/kg, day 2) | Deaths on day after start of treatment (ICR mice [5]; female, repeated iv 0.5mg/kg, day 3) | Deaths on day after start of treatment (ICR mice [5]; female, repeated iv 0.5mg/kg, day 4) | Deaths on day after start of treatment (ICR mice [5]; female, repeated iv 0.5mg/kg, day 5) | Deaths on day after start of treatment (ICR mice [5]; female, repeated iv 0.5mg/kg, day 6) | Deaths on day after start of treatment (ICR mice [5]; female, repeated iv 0.5mg/kg, day 7) | Deaths on day after start of treatment (ICR mice [5]; female, repeated iv 1.5mg/kg, day 0) | Deaths on day after start of treatment (ICR mice [5]; female, repeated iv 1.5mg/kg, day 1) | Deaths on day after start of treatment (ICR mice [5]; female, repeated iv 1.5mg/kg, day 2) | Deaths on day after start of treatment (ICR mice [5]; female, repeated iv 1.5mg/kg, day 3) | Deaths on day after start of treatment (ICR mice [5]; female, repeated iv 1.5mg/kg, day 4) | Deaths on day after start of treatment (ICR mice [5]; female, repeated iv 1.5mg/kg, day 5) | Deaths on day after start of treatment (ICR mice [5]; female, repeated iv 1.5mg/kg, day 6) | Deaths on day after start of treatment (ICR mice [5]; female, repeated iv 1.5mg/kg, day 7) | Deaths on day after start of treatment (ICR mice [5]; male, repeated iv 0.5mg/kg, day 0) | Deaths on day after start of treatment (ICR mice [5]; male, repeated iv 0.5mg/kg, day 1) | Deaths on day after start of treatment (ICR mice [5]; male, repeated iv 0.5mg/kg, day 2) | Deaths on day after start of treatment (ICR mice [5]; male, repeated iv 0.5mg/kg, day 3) | Deaths on day after start of treatment (ICR mice [5]; male, repeated iv 0.5mg/kg, day 4) | Deaths on day after start of treatment (ICR mice [5]; male, repeated iv 0.5mg/kg, day 5) | Deaths on day after start of treatment (ICR mice [5]; male, repeated iv 0.5mg/kg, day 6) | Deaths on day after start of treatment (ICR mice [5]; male, repeated iv 1.5mg/kg, day 0) | Deaths on day after start of treatment (ICR mice [5]; male, repeated iv 1.5mg/kg, day 1) | Deaths on day after start of treatment (ICR mice [5]; male, repeated iv 1.5mg/kg, day 2) | Deaths on day after start of treatment (ICR mice [5]; male, repeated iv 1.5mg/kg, day 3) | Deaths on day after start of treatment (ICR mice [5]; male, repeated iv 1.5mg/kg, day 4) | Deaths on day after start of treatment (ICR mice [5]; male, repeated iv 1.5mg/kg, day 5)
2.95 mg/kg: LD50 at 7 days ([2]; male mice, read-out: median lethal dose (LD50))
5: Deaths on day after start of treatment (ICR mice [3]; male, single iv 5mg/kg, day 0)
415 ng·h/mL: AUC(0-t) (in vivo [1]; plasma)
4.65 ± 0.17 µg/mL: Hemolytic activity (MHC, minimum hemolytic concentration) (horse blood cells)
1.5 mg/kg: MTD at 7 days [4]
5 mL/min/kg: clearance (in vivo [1]; plasma)
5.5 h: MRT inf (in vivo [9])
0.5 mL/min/kg: clearance (in vivo [9])
